Measurements reported in patent US20190192060A1, “DEVICE AND METHOD FOR BLOOD VOLUME MEASUREMENT” (Oregon Health & Science University, priority 2017, published 2019).

Experiments:
[1] = cited from earlier work
[2] = cited from earlier work; remark: listed apart in the source
[3] = in vivo indicator dilution and elimination measured with intravenous optical fiber probe; details: healthy adult rhesus macaques, intravenous injection, reflectance in cephalic vein

- time until blood volume indicator values returned to baseline (non-detectable) [3]: approximately 10 minutes
Structure (SMILES): CC1(C)C(/C=C/C=C/C=C/C=C2\N(CCCCS(=O)(=O)O)c3ccc4ccccc4c3C2(C)C)=[N+](CCCCS(=O)(=O)[O-])c2ccc3ccccc3c21 [ICG, indocyanine green]
- time to elimination by the liver ([1]; after mixing in the circulating compartment): ≤ 15 min
- route of excretion ([1]; in vivo): excreted unchanged in the bile
- placental transfer ([2]; in vivo): does not cross the placenta
- harm to the fetus ([2]; used in many pregnant women): without any reports of harm to the fetus
